Data taken from PubChem BioAssay (NCI).
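1) Cells in 96-well plates. 2) Compound, 48 h, 5 concentrations. 3) Linear interpolation between surrounding doses. 4) Unreached endpoint = highest concentration. GI50: concentration for 50% inhibition of growth. TGI: concentration producing complete growth inhibition.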

What was measured:
Assay in all cases: DTP human tumour cell line panel, 48 h
[1] = system: 786-0 renal
[2] = system: A498 renal
[3] = system: A549 NSCLC
[4] = system: ACHN renal
[5] = system: BT-549 breast
[6] = system: CAKI-1 renal
[7] = system: CCRF-CEM leukemia
[8] = system: COLO 205 colon
[9] = system: DU-145 prostate
[10] = system: HCC-2998 colon
[11] = system: HCT-116 colon
[12] = system: HCT-15 colon
[13] = system: HL-60(TB) leukemia
[14] = system: HOP-62 NSCLC
[15] = system: HOP-92 NSCLC
[16] = system: HS 578T breast
[17] = system: HT29 colon
[18] = system: IGROV1 ovarian
[19] = system: K-562 leukemia
[20] = system: KM12 colon
[21] = system: LOX IMVI melanoma
[22] = system: M14 melanoma
[23] = system: MALME-3M melanoma
[24] = system: MCF7 breast
[25] = system: MDA-MB-231 breast
[26] = system: MDA-MB-435
[27] = system: MOLT-4 leukemia
[28] = system: NCI-H226 lung
[29] = system: NCI-H460 lung
[30] = system: NCI-H522 lung
[31] = system: NCI/ADR-RES ovarian
[32] = system: OVCAR-3 ovarian
[33] = system: OVCAR-4 ovarian
[34] = system: OVCAR-5 ovarian
[35] = system: OVCAR-8 ovarian
[36] = system: RPMI-8226 leukemia
[37] = system: RXF 393 renal
[38] = system: SF-268 CNS
[39] = system: SF-295 CNS
[40] = system: SF-539 CNS
[41] = system: SK-MEL-2 melanoma
[42] = system: SK-MEL-28 melanoma
[43] = system: SK-MEL-5 melanoma
[44] = system: SK-OV-3 ovarian
[45] = system: SN12C renal
[46] = system: SNB-19 CNS
[47] = system: SNB-75 CNS
[48] = system: SR leukemia
[49] = system: SW-620 colon
[50] = system: T-47D breast
[51] = system: TK-10 renal
[52] = system: U251 CNS
[53] = system: UACC-257 melanoma
[54] = system: UO-31 renal
[55] = system: EKVX NSCLC
[56] = system: NCI-H23 lung
[57] = system: PC-3 prostate
[58] = system: UACC-62 melanoma

`Cc1noc(C)c1-c1cc(O)cc(C(O)c2ccccc2)c1` (stereo not drawn) gave a GI50 [1] of 27.1 µM, a TGI [1] of over 100 µM and a GI50 [2] of 2.6 µM. The TGI [2] was 20.3 µM, the GI50 [3] was 22.4 µM and the TGI [3] was over 100 µM. It also gave a GI50 [4] of 4.76 µM, a TGI [4] of over 100 µM and a GI50 [5] of 28.2 µM. For the same compound, the TGI [5] was over 100 µM, the GI50 [6] was 4.35 µM and the TGI [6] was over 100 µM. It also gave a GI50 [7] of 14.8 µM, a TGI [7] of over 100 µM and a GI50 [8] of 5.25 µM. For the same compound, the TGI [8] was over 100 µM, the GI50 [9] was 69.5 µM and the TGI [9] was over 100 µM. For the same compound, the GI50 [10] was 8.55 µM, the TGI [10] was over 100 µM and the GI50 [11] was 7.08 µM. The TGI [11] was over 100 µM, the GI50 [12] was 3.52 µM and the TGI [12] was over 100 µM. For the same compound, the GI50 [13] was 2.17 µM, the TGI [13] was 22.7 µM and the GI50 [14] was 4.89 µM. For the same compound, the TGI [14] was over 100 µM, the GI50 [15] was 1.02 µM and the TGI [15] was 72.9 µM. For the same compound, the GI50 [16] was 1.93 µM, the TGI [16] was 90.7 µM and the GI50 [17] was 4.54 µM. For the same compound, the TGI [17] was over 100 µM, the GI50 [18] was 23.2 µM and the TGI [18] was over 100 µM. It also gave a GI50 [19] of 8.69 µM, a TGI [19] of over 100 µM and a GI50 [20] of 8.2 µM. For the same compound, the TGI [20] was over 100 µM, the GI50 [21] was 3.6 µM and the TGI [21] was 80.5 µM. It also gave a GI50 [22] of 4.48 µM, a TGI [22] of over 100 µM and a GI50 [23] of 28.9 µM. It also gave a TGI [23] of over 100 µM, a GI50 [24] of 1.7 µM and a TGI [24] of over 100 µM. It also gave a GI50 [25] of 3.92 µM, a TGI [25] of over 100 µM and a GI50 [26] of 3.48 µM. It also gave a TGI [26] of over 100 µM, a GI50 [27] of 17.9 µM and a TGI [27] of 80.7 µM. It also gave a GI50 [28] of 21.3 µM, a TGI [28] of over 100 µM and a GI50 [29] of 25.1 µM. The TGI [29] was over 100 µM, the GI50 [30] was 27 µM and the TGI [30] was over 100 µM. It also gave a GI50 [31] of 6.32 µM, a TGI [31] of over 100 µM and a GI50 [32] of 6.65 µM. For the same compound, the TGI [32] was over 100 µM, the GI50 [33] was 6.35 µM and the TGI [33] was over 100 µM. It also gave a GI50 [34] of 31.8 µM, a TGI [34] of over 100 µM and a GI50 [35] of 8.33 µM. The TGI [35] was over 100 µM, the GI50 [36] was 1.94 µM and the TGI [36] was 9.64 µM. It also gave a GI50 [37] of 4.58 µM, a TGI [37] of over 100 µM and a GI50 [38] of 39.3 µM. It also gave a TGI [38] of over 100 µM, a GI50 [39] of 7.31 µM and a TGI [39] of over 100 µM. The GI50 [40] was 4.56 µM, the TGI [40] was over 100 µM and the GI50 [41] was 23.5 µM. For the same compound, the TGI [41] was over 100 µM, the GI50 [42] was 9.15 µM and the TGI [42] was over 100 µM. It also gave a GI50 [43] of 5.95 µM, a TGI [43] of 29.5 µM and a GI50 [44] of 7.01 µM. For the same compound, the TGI [44] was over 100 µM, the GI50 [45] was 17.2 µM and the TGI [45] was over 100 µM. The GI50 [46] was 5.69 µM, the TGI [46] was over 100 µM and the GI50 [47] was 0.423 µM. For the same compound, the TGI [47] was over 100 µM, the GI50 [48] was 1.01 µM and the TGI [48] was over 100 µM. For the same compound, the GI50 [49] was 24.6 µM, the TGI [49] was over 100 µM and the GI50 [50] was 7.7 µM. For the same compound, the TGI [50] was over 100 µM, the GI50 [51] was 3.99 µM and the TGI [51] was over 100 µM. It also gave a GI50 [52] of 15 µM, a TGI [52] of over 100 µM and a GI50 [53] of 4.66 µM. For the same compound, the TGI [53] was over 100 µM, the GI50 [54] was 1.08 µM and the TGI [54] was over 100 µM.
`C=CC(C=O)C1(O)CCOC(=O)/C1=C\N` (stereo not drawn) gave a GI50 [1] of over 100 µM, a TGI [1] of over 100 µM and a GI50 [3] of over 100 µM. It also gave a TGI [3] of over 100 µM, a GI50 [4] of over 100 µM and a TGI [4] of over 100 µM. It also gave a GI50 [6] of over 100 µM, a TGI [6] of over 100 µM and a GI50 [7] of over 100 µM. The TGI [7] was over 100 µM, the GI50 [8] was over 100 µM and the TGI [8] was over 100 µM. The GI50 [9] was over 100 µM, the TGI [9] was over 100 µM and the GI50 [55] was over 100 µM. It also gave a TGI [55] of over 100 µM, a GI50 [10] of over 100 µM and a TGI [10] of over 100 µM. For the same compound, the GI50 [11] was over 100 µM, the TGI [11] was over 100 µM and the GI50 [12] was over 100 µM. For the same compound, the TGI [12] was over 100 µM, the GI50 [14] was over 100 µM and the TGI [14] was over 100 µM. The GI50 [16] was 7.57 µM, the TGI [16] was over 100 µM and the GI50 [17] was over 100 µM. It also gave a TGI [17] of over 100 µM, a GI50 [18] of over 100 µM and a TGI [18] of over 100 µM. For the same compound, the GI50 [19] was over 100 µM, the TGI [19] was over 100 µM and the GI50 [20] was over 100 µM. It also gave a TGI [20] of over 100 µM, a GI50 [21] of over 100 µM and a TGI [21] of over 100 µM. The GI50 [22] was over 100 µM, the TGI [22] was over 100 µM and the GI50 [23] was over 100 µM. It also gave a TGI [23] of over 100 µM, a GI50 [24] of over 100 µM and a TGI [24] of over 100 µM. It also gave a GI50 [25] of over 100 µM, a TGI [25] of over 100 µM and a GI50 [26] of over 100 µM. It also gave a TGI [26] of over 100 µM, a GI50 [27] of over 100 µM and a TGI [27] of over 100 µM. The GI50 [28] was over 100 µM, the TGI [28] was over 100 µM and the GI50 [56] was 52.4 µM. It also gave a TGI [56] of over 100 µM, a GI50 [29] of over 100 µM and a TGI [29] of over 100 µM. The GI50 [30] was over 100 µM, the TGI [30] was over 100 µM and the GI50 [31] was over 100 µM. The TGI [31] was over 100 µM, the GI50 [32] was over 100 µM and the TGI [32] was over 100 µM. It also gave a GI50 [34] of over 100 µM, a TGI [34] of over 100 µM and a GI50 [35] of over 100 µM. For the same compound, the TGI [35] was over 100 µM, the GI50 [57] was over 100 µM and the TGI [57] was over 100 µM. The GI50 [36] was over 100 µM, the TGI [36] was over 100 µM and the GI50 [38] was over 100 µM. For the same compound, the TGI [38] was over 100 µM, the GI50 [39] was over 100 µM and the TGI [39] was over 100 µM. It also gave a GI50 [41] of over 100 µM, a TGI [41] of over 100 µM and a GI50 [42] of over 100 µM. It also gave a TGI [42] of over 100 µM, a GI50 [43] of 62.4 µM and a TGI [43] of over 100 µM. It also gave a GI50 [44] of over 100 µM, a TGI [44] of over 100 µM and a GI50 [45] of over 100 µM. For the same compound, the TGI [45] was over 100 µM, the GI50 [46] was over 100 µM and the TGI [46] was over 100 µM. It also gave a GI50 [48] of 30.7 µM, a TGI [48] of over 100 µM and a GI50 [49] of over 100 µM. For the same compound, the TGI [49] was over 100 µM, the GI50 [50] was over 100 µM and the TGI [50] was over 100 µM. It also gave a GI50 [51] of over 100 µM, a TGI [51] of over 100 µM and a GI50 [52] of over 100 µM. For the same compound, the TGI [52] was over 100 µM, the GI50 [53] was over 100 µM and the TGI [53] was over 100 µM. The GI50 [58] was over 100 µM, the TGI [58] was over 100 µM and the GI50 [54] was over 100 µM. The TGI [54] was over 100 µM.
